Reference: patent US20250092056A1, “URACIL DERIVATIVES HAVING VIRUS REPLICATION INHIBITORY ACTIVITY AND PHARMACEUTICAL COMPOSITION COMPRISING THE SAME” (Shionogi & Co., Ltd., priority 2022, published 2025)
Values joined by “and” are separate entries in the source; they are usually repeats but may differ in a detail not shown here. Identical values can stand only once. Like-named read-outs stand apart in the source and are kept apart here.

Assays:
SARS-CoV-2 = experiment: Cytopathic effect (CPE) suppression effect confirmation test using HEK293T/ACE2-TMPRSS2 cells; format: cell-based; settings: Severe acute respiratory syndrome coronavirus 2, HEK-293T
[1] = molecular target: Recombinant SARS-CoV-2 3CL Protease (Severe acute respiratory syndrome coronavirus 2 (2019-nCoV) (SARS-CoV-2), UniProt P0DTD1); experiment: biochemical; format: biochemical; settings: 50% SARS-CoV-2 3CL protease inhibitory concentration; read-out: IC50
[2] = 50% SARS-CoV-2 infected cell death inhibitory concentration, HEK293T/ACE2-TMPRSS2 cells, read-out: EC50
[3] = 72 h, read-out: EC50 (50% SARS-CoV-2 infected cell death inhibitory concentration), class, HEK293T/ACE2-TMPRSS2 cells, CPE suppression, CellTiter-Glo 2.0 after 3 days culture
[4] = 72 h, HEK293T/ACE2-TMPRSS2 cells, CPE suppression, CellTiter-Glo 2.0 after 3 days culture, read-out: EC50 (50% SARS-CoV-2 infected cell death inhibitory concentration), class
[5] = 72 h, read-out: EC50 (50% SARS-CoV-2 infected cell death inhibitory concentration), HEK293T/ACE2-TMPRSS2 cells, CPE suppression, CellTiter-Glo 2.0 after 3 days culture

Compound | EC50 (SARS-CoV-2; [2]) [nM] | IC50 [1] | other results
N#CCn1c(N2C[C@@H]3C[C@H]2CO3)c(-c2cc(F)c(F)c(C#N)c2)c(=O)n(-c2cncc(Cl)c2)c1=O [Compound I-370] | < 100 | < 10 nM | 
Cc1cc(-n2c(=O)c(-c3cc(F)c(F)c(Cl)c3)c(N3CC4(CCOCC4)C3)n(CC#N)c2=O)cc(=O)[nH]1 [Compound I-032] |  | < 10 nM | EC50 (SARS-CoV-2; [3]): 100 to 1000 nM
N#CCn1c(N2CC(O)(C(F)(F)F)C2)c(-c2ccc(F)c(C(F)F)c2)c(=O)n(-c2cncc(Cl)c2)c1=O [Compound I-340] | < 100 | < 10 nM | 
Cc1cc(-n2c(=O)c(-c3ccc(F)c(Cl)c3)c(C#CC3CC3)n(CC#N)c2=O)cc(=O)[nH]1 [Compound I-184] |  | > 100 nM | EC50 (SARS-CoV-2; [3]): 100 to 1000 nM
N#CCn1c(N2CC3(C2)CC(F)(F)C3)c(-c2ccc(F)c(Cl)c2)c(=O)n(-c2cc(=O)cc(Br)[nH]2)c1=O [Compound I-222] |  | > 100 nM | 
Cc1cncc(-n2c(=O)c(Cc3cc(F)c(F)c(F)c3)c(-c3ccc(C)c(C)c3)n(C3(C#N)CC3)c2=O)c1 [Compound I-049] |  | 10 to 100 nM | EC50 (SARS-CoV-2; [4]): 100 to 1000 nM
N#CCn1c(N2Cc3ccccc3C2)c(-c2cccc(Cl)c2)c(=O)n(Cc2ccc[nH]c2=O)c1=O [Compound I-124] |  | < 10 nM | EC50 (SARS-CoV-2; [3]): < 100 nM
N#CCn1c(-c2ccc(C(F)F)nc2)c(-c2ccc(F)c(Cl)c2)c(=O)n(-c2cncc(Cl)c2)c1=O [Compound I-387] | < 100 | < 10 nM | 
N#CCn1c(N2CC3(C2)CC(F)(F)C3)c(-c2ccc(F)c(Cl)c2)c(=O)n(-c2cncc(OCF)c2)c1=O [Compound I-325] | < 100 | < 10 nM | 
Cc1cncc(-n2c(=O)c(-c3ccc(F)c(Cl)c3)c(N3CC4(CCOCC4)C3)n(CC#N)c2=O)n1 [Compound I-193] |  |  | EC50 (SARS-CoV-2; [4]): < 100 nM
N#CCn1c(N2CC(F)(C3CC3)C2)c(-c2ccc(F)c(Cl)c2)c(=O)n(-c2cncc(OCF)n2)c1=O [Compound I-410] | < 100 | < 10 nM | 
Cc1cncc(-n2c(=O)c(-c3ccc(F)c(Cl)c3)c(N3Cc4ccccc4C3=O)n(CC#N)c2=O)c1 [Compound I-023] |  | < 10 nM | EC50 (SARS-CoV-2; [3]): < 100 nM
Cc1cncc(-n2c(=O)c(-c3ccc(F)c(Cl)c3)c(N3CCC(C(F)F)CC3)n(CC#N)c2=O)n1 [Compound I-194] |  |  | EC50 (SARS-CoV-2; [4]): < 100 nM
N#CCn1c(N2Cc3ccccc3C2)c(Sc2cc(F)c(F)c(F)c2)c(=O)n(-c2cncc(Cl)c2)c1=O [Compound I-167] |  | 49 nM | EC50 (SARS-CoV-2; [5]): 26.3 nM
N#CCn1c(N2CC(OC(F)(F)F)C2)c(-c2ccc(F)c(Cl)c2)c(=O)n(-c2cncc(OCF)n2)c1=O [Compound I-408] | < 100 | < 10 nM | 
CCCOc1cc(Cl)cc(-c2c(N3Cc4ccccc4C3)n(CC#N)c(=O)n(-c3cncc(C)c3)c2=O)c1 [Compound I-041] |  | < 10 nM | EC50 (SARS-CoV-2; [3]): < 100 nM
N#CCn1c(N2CC(OC(F)F)C2)c(-c2ccc(F)c(F)c2)c(=O)n(-c2cncc(Cl)c2)c1=O [Compound I-319] | < 100 | < 10 nM | 
N#CCn1c(N2CC(F)(c3ncccn3)C2)c(-c2ccc(F)c(Cl)c2)c(=O)n(-c2cncc(Cl)c2)c1=O [Compound I-287] | < 100 | < 10 nM | 
N#CCn1c(N2CCC(F)(F)CC2)c(-c2cc(Cl)cc(C#N)c2)c(=O)n(-c2cncc(Cl)c2)c1=O [Compound I-330] | < 100 | < 10 nM | 

Compound | EC50 (SARS-CoV-2; [2]) [nM] | IC50 [1] | other results
N#CCn1c(N2CC(n3cccn3)C2)c(-c2ccc(F)c(Cl)c2)c(=O)n(-c2cncc(Cl)c2)c1=O [Compound I-080] |  | < 10 nM | 
Cc1cncc(-n2c(=O)c(-c3ccc(F)c(Cl)c3)c(-c3ccccc3)n(CC#N)c2=O)c1 [Compound I-268] | < 100 |  | 
N#CCn1c(N2CCN(c3ccccc3)C(=O)C2)c(-c2ccc(F)c(Cl)c2)c(=O)n(-c2cncc(Cl)c2)c1=O [Compound I-081] |  | > 100 nM | 
COc1ccc(-c2c(-c3ccc(F)c(Cl)c3)c(=O)n(-c3cncc(Cl)c3)c(=O)n2CC#N)cn1 [Compound I-379] | < 100 | < 10 nM | 
Cc1cncc(-n2c(=O)c(-c3ccc(F)c(Cl)c3)c(-c3ccc(S(N)(=O)=O)cc3)n(CC#N)c2=O)c1 [Compound I-275] | 100 to 1000 | < 10 nM | 
COC1CCN(c2c(Cc3cc(F)c(F)c(F)c3)c(=O)n(-c3cncc(C)c3)c(=O)n2CC#N)C1 (racemic) [Compound I-102] |  | < 10 nM | EC50 (SARS-CoV-2; [3]): < 100 nM
N#CCn1c(N2CC[C@](O)(C(F)F)C2)c(-c2ccc(F)c(Cl)c2)c(=O)n(-c2cncc(C#N)c2)c1=O [Compound I-400] | < 100 | < 10 nM | 
N#CCn1c(N2CC(OC(F)(F)F)C2)c(-c2ccc(F)c(Cl)c2)c(=O)n(-c2cncc(Cl)c2)c1=O [Compound I-257] |  | 0.35 nM | EC50 (SARS-CoV-2; [5]): 2.98 nM
CC(=O)OCC(=O)Cn1c(C)c(-c2ccc(F)c(Cl)c2)c(=O)n(-c2cncc(Cl)c2)c1=O [Compound I-444] | 100 to 1000 | > 100 nM | 
N#CCn1c(N2CC(F)(C3CC3)C2)c(-c2ccc(F)c(Cl)c2)c(=O)n(-c2cncc(C#N)c2)c1=O [Compound I-338] | < 100 | < 10 nM | 
N#CCn1c(N2CC3(CCOC3)C2)c(-c2cccc(C(F)F)c2)c(=O)n(-c2cncc(Cl)c2)c1=O [Compound I-177] |  | < 10 nM | EC50 (SARS-CoV-2; [3]): < 100 nM
Cc1cncc(-n2c(=O)c(Cc3cc(F)c(F)c(F)c3)c(N3CC(F)C3)n(CC#N)c2=O)c1 [Compound I-090] |  | 10 to 100 nM | EC50 (SARS-CoV-2; [4]): < 100 nM
Cc1cc(-n2c(=O)c(-c3ccc(F)c(Cl)c3)c(Cl)n(CC#N)c2=O)c[n+]([O-])c1 [Compound I-277] |  | > 100 nM | 
Cc1cncc(-n2c(=O)c(-c3ccc(F)c(Cl)c3)c(N3CC4(CCOC4)C3)n(CC#N)c2=O)c1 [Compound I-045] |  | < 10 nM | EC50 (SARS-CoV-2; [3]): < 100 nM
N#CCn1c(N2CCC3(CNC(=O)C3)C2)c(-c2ccc(F)c(Cl)c2)c(=O)n(-c2cnc3cc(Cl)ccn23)c1=O (racemic) [Compound I-051] |  | 10 to 100 nM | EC50 (SARS-CoV-2; [4]): 1000 to 5000 nM
Cc1cncc(-n2c(=O)c(-c3ccc(F)c(Cl)c3)c(-c3ccc(C(=O)O)cc3)n(CC#N)c2=O)c1 [Compound I-024] |  | > 100 nM | 
Cc1cncc(-n2c(=O)c(Cc3cc(F)c(F)c(F)c3)c(OC(C(F)(F)F)C(F)(F)F)n(CC#N)c2=O)c1 [Compound I-004] |  | > 100 nM | 
Cc1cncc(-n2c(=O)c(Cc3cc(F)c(F)c(F)c3)c(N3C[C@@H]4[C@H](C3)C4(F)F)n(CC#N)c2=O)c1 [Compound I-099] |  |  | EC50 (SARS-CoV-2; [4]): < 100 nM
N#CCn1c(N2CCCCC2)c(-c2ccc(F)c(Cl)c2)c(=O)n(-c2cncc(Cl)c2)c1=O [Compound I-254] |  | < 10 nM | 

Compound | EC50 (SARS-CoV-2; [2]) [nM] | IC50 [1] | other results
Cc1cncc(-n2c(=O)c(Cc3cc(F)c(F)c(F)c3)c(Cl)n(CC#N)c2=O)c1 [Compound I-013] |  | 10 to 100 nM | 
Cn1cnc(Cn2c(=O)c(Cc3cc(F)c(F)c(F)c3)c(N3Cc4cn[nH]c4C3)n(CC#N)c2=O)n1 [Compound I-002] |  | > 100 nM | 
CC1(C)CN(c2c(-c3ccc(F)c(Cl)c3)c(=O)n(-c3cnc4cc(F)ccn34)c(=O)n2CC#N)C1 [Compound I-154] |  | < 10 nM | 
Cc1cncc(-n2c(=O)c(Cc3cc(F)c(F)c(F)c3)c(Cl)n(C(C)C#N)c2=O)c1 (racemic) [Compound I-046] |  | > 100 nM | 
N#CCn1c(N2Cc3ccccc3C2)c(Cc2cc(F)c(F)c(F)c2)c(=O)n(-c2cncc(=O)[nH]2)c1=O [Compound I-158] |  | 10 to 100 nM | 
N#CCn1c(N2Cc3ccccc3C2)c(-c2cccc(Cl)c2)c(=O)n(C2CCn3cnnc32)c1=O (racemic) [Compound I-121] |  | > 100 nM | 
N#CCn1c(N2CCc3ccccc3C2)c(-c2ccc(F)c(Cl)c2)c(=O)n(-c2cncc(Cl)c2)c1=O [Compound I-253] | < 100 |  | 
N#CCn1c(N2CC3(C2)CC(F)(F)C3)c(-c2ccc(F)c(Cl)c2)c(=O)n(-c2cncc(Cl)c2)c1=O [Compound I-077] |  |  | EC50 (SARS-CoV-2; [5]): 1.66 nM
Cc1cncc(-n2c(=O)c(-c3ccc(F)c(Cl)c3)c(-c3ccc(C4CC4)nc3)n(CC#N)c2=O)c1 [Compound I-269] | < 100 |  | 
N#CCn1c(N2CC3(CCOC3)C2)c(-c2ccc(F)c(Cl)c2)c(=O)n(-c2cc(Cl)[nH]c(=O)c2)c1=O [Compound I-187] |  | 10 to 100 nM | 
N#CCn1c(Cl)c(-c2ccc(F)c(Cl)c2)c(=O)n(-c2cnc3ccc(F)cn23)c1=O [Compound I-125] |  | > 100 nM | 
Cc1cc(-n2c(=O)c(Cc3cc(F)c(F)c(F)c3)c(N3CC4(CCOC4)C3)n(CC#N)c2=O)cc(=O)[nH]1 [Compound I-123] |  | > 100 nM | 
N#CCn1c(N2CCCC2)c(-c2ccc(F)c(Cl)c2)c(=O)n(-c2cncc(Cl)c2)c1=O [Compound I-252] |  | < 10 nM | 
Cn1cnc(Cn2c(=O)c(Cc3cc(F)c(F)c(F)c3)c(N3CC4(CCOC4)C3)n(CC#N)c2=O)n1 [Compound I-089] |  | > 100 nM | 
N#CCn1c(N2CC3(CCOC3)C2)c(-c2ccc(F)c(Cl)c2)c(=O)n(-c2cc(C(F)(F)F)[nH]c(=O)c2)c1=O [Compound I-186] |  | 10 to 100 nM | 
N#CCn1c(N2CC3(CCOC3)C2)c(C2CCCCC2)c(=O)n(-c2cncc(Cl)c2)c1=O [Compound I-285] |  | > 100 nM | 
CC1(c2ccc(F)c(Cl)c2)CN(CC#N)C(=O)N(c2cncc(Cl)c2)C1=O (racemic) [Compound I-283] |  | < 10 nM and > 100 nM | 
N#CCn1c(N2CC3(CCOC3)C2)c(Cc2cc(F)c(F)c(F)c2)c(=O)n(CCC(N)=O)c1=O [Compound I-001] |  | > 100 nM | 
